# Reference: publication PMC3903516 (PLoS ONE, 2014)
# Numbering of substitutions follows the chain as printed.
# Experiments:
# [1] = target: T1, CYP2A6*15 (Homo sapiens, UniProt P11509, K194E); assay: CYP2A6 inactivation assay (fluorescence-based coumarin 7-hydroxylase assay); format: biochemical; conditions: pH 7.4, probe coumarin (10 µM; 7-hydroxylation), 8-MOP 1.0 µM, 10 min pre-incubation with NADPH generating system vs no pre-incubation, read-out: increased percentage in inhibition with pre-incubation
# T1 construct: made in house; host or cells: E. coli (membrane fractions; pCW-CYP2A6*15 co-expressed with pACYC-OxR)
# T1 sequence (P11509 1-494 K194E): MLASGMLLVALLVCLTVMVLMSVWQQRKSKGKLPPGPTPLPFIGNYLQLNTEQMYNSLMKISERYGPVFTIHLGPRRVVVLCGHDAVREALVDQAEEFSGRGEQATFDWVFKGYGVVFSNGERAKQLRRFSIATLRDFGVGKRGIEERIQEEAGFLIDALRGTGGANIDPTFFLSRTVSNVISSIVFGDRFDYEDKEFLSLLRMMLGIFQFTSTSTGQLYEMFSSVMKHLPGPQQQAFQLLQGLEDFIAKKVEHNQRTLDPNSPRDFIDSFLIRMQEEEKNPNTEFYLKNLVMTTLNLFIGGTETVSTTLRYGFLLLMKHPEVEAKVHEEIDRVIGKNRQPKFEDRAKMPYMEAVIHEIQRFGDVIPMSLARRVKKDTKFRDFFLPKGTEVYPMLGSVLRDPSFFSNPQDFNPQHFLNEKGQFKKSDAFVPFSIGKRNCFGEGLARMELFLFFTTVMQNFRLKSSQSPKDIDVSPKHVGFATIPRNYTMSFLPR
# Text: (§1) A fully functional P450 monooxygenase system requires collaboration of the CYP of interest in concert with the essential coenzyme, NADPH-CYP oxidoreductase (OxR). Here, we co-expressed the individual CYP2A6 plasmid constructs – pCW-CYP2A6, pCW-CYP2A6*15, pCW-CYP2A6*16, pCW-CYP2A6*21 or pCW-CYP2A6*22, with pACYC-OxR plasmid which allowed for OxR co-expression that was important for CYP2A6 catalytic function. Preparation of membrane fragments expressing holoenzyme protein of respective CYP2A6 construct was in accordance to the established method described previously. Membrane fractions were stored at −80°C in a 1∶1 mixture of pH 7.6 TES (100 mM Tris/0.5 mM EDTA/500 mM sucrose buffer) and ice-cold distilled water before use.
# (§2) Assessment of coumarin 7-hydroxylation is a signature marker for CYP2A6 metabolic assay. To evaluate the inhibitory potency of 8-MOP on the kinetic activity of CYP2A6 variants, we adopted a fluorescence-based coumarin 7-hydroxylase assay upon minor modifications of an established protocol, [13]. […] NADPH generating system (1 mM NADP, 10 mM G6P, 2IU G6PDH and 5 mM MgCl2) in 0.1 M phosphate buffer, pH 7.4 was added subsequently to the incubation mixture to initiate the reactions. […] Enzyme inhibition reactions were allowed in 25 minutes of incubation and later terminated by 500 mM Tris base. The experimental conditions were selected such that under conditions with varying activities of CYP2A6 proteins, no more than 20% of the substrate was converted to 7-hydroxycoumarin. The fluorescent metabolite was detected by Tecan Infinite™ 200 series microplate reader (Männerdorf, Switzerland) at excitation wavelength 365 nm and emission wavelength 450 nm and further estimated based on the standard curve of 7-hydroxycoumarin which was constructed in the range of 15.63–2000 pmol/well previously (data not shown). Current assay also included control for fluorescent interference which consisted of inhibitor (at a concentration equal to the inhibition incubations) and bacterial control membranes.
# [2] = target: T2, CYP2A6*22 (Homo sapiens, UniProt P11509, D158E/L160I); assay: as above; format: biochemical; conditions: pH 7.4, probe coumarin (10 µM; 7-hydroxylation), 8-MOP 1.0 µM, 10 min pre-incubation with NADPH generating system vs no pre-incubation, read-out: increased percentage in inhibition with pre-incubation
# T2 construct: made in house; host or cells: E. coli (membrane fractions; pCW-CYP2A6*22 co-expressed with pACYC-OxR)
# T2 sequence (P11509 1-494 D158E/L160I): T1 sequence (P11509 1-494 K194E) with D158E, L160I, E194K
# Text: as §1, §2
# [3] = target: T3, CYP2A6*1 (wild-type) (Homo sapiens, UniProt P11509); assay: as above; format: biochemical; conditions: pH 7.4, probe coumarin (10 µM; 7-hydroxylation), 8-MOP 1.0 µM, 10 min pre-incubation with NADPH generating system vs no pre-incubation, read-out: increased percentage in inhibition with pre-incubation
# T3 construct: made in house; host or cells: E. coli (membrane fractions; pCW-CYP2A6*1 co-expressed with pACYC-OxR)
# T3 sequence (P11509 1-494): T1 sequence (P11509 1-494 K194E) with E194K
# Text: as §1, §2
# [4] = target: T4, CYP2A6*16 (Homo sapiens, UniProt P11509, R203S); assay: as above; format: biochemical; conditions: pH 7.4, probe coumarin (10 µM; 7-hydroxylation), 8-MOP 1.0 µM, 10 min pre-incubation with NADPH generating system vs no pre-incubation, read-out: increased percentage in inhibition with pre-incubation
# T4 construct: made in house; host or cells: E. coli (membrane fractions; pCW-CYP2A6*16 co-expressed with pACYC-OxR)
# T4 sequence (P11509 1-494 R203S): T1 sequence (P11509 1-494 K194E) with E194K, R203S
# Text: as §1, §2
# [5] = target: T5, CYP2A6*21 (Homo sapiens, UniProt P11509, K476R); assay: as above; format: biochemical; conditions: pH 7.4, probe coumarin (10 µM; 7-hydroxylation), 8-MOP 1.0 µM, 10 min pre-incubation with NADPH generating system vs no pre-incubation, read-out: increased percentage in inhibition with pre-incubation
# T5 construct: made in house; host or cells: E. coli (membrane fractions; pCW-CYP2A6*21 co-expressed with pACYC-OxR)
# T5 sequence (P11509 1-494 K476R): T1 sequence (P11509 1-494 K194E) with E194K, K476R
# Text: as §1, §2
# [6] = target: T3, CYP2A6*1 (wild-type); set-up: method as in PMID 20139165; conditions: coumarin 7-hydroxylation, mean ± SD n=3; cited from earlier work
# [7] = target: T1, CYP2A6*15; set-up: method as in PMID 20139165; conditions: coumarin 7-hydroxylation, mean ± SD n=3; cited from earlier work
# [8] = system: CYP2A6 K476E; set-up: method as in PMID 16207711; conditions: towards coumarin; cited from earlier work
# [9] = target: T5, CYP2A6*21; set-up: method as in PMID 20139165; conditions: coumarin 7-hydroxylation, mean ± SD n=3; cited from earlier work
# [10] = target: T4, CYP2A6*16; set-up: method as in PMID 20139165; conditions: coumarin 7-hydroxylation, mean ± SD n=3; cited from earlier work
# [11] = target: T2, CYP2A6*22; set-up: method as in PMID 20139165; conditions: coumarin 7-hydroxylation, mean ± SD n=3; cited from earlier work
SMILES,"inhibition at 35 min, 1 µM [1] [%]","inhibition at 35 min, 1 µM [2] [%]","inhibition at 35 min, 1 µM [3] [%]","inhibition at 35 min, 1 µM [4] [%]","inhibition at 35 min, 1 µM [5] [%]",Km [6] [µM],Km [7] [µM],"catalytic efficiency, % of the wild type kcat/Km value [8] [%]",Km [9] [µM],Km [10] [µM],Km [11] [µM]
COc1c2occc2cc2ccc(=O)oc12 [8-methoxypsoralen],32,23,35,31,24,,,,,,
O=c1ccc2ccccc2o1 [coumarin],,,,,,10.6 ± 1.58,22.1 ± 1.29,~8,16.4 ± 0.41,10.5 ± 1.45,31.2 ± 2.22
